Reference: patent US7547726B2, “AI-2 compounds and analogs based on Salmonella typhimurium LsrB structure” (The Trustees of Princeton University, priority 2004, dated 2009)
Like-named read-outs stand apart in the source and are kept apart here.

Legend:
[1] = test system: V. harveyi strain MM32 (LuxN−, LuxS−); assay type: cell-based; settings: for light production: ligand approximately 0.2 nM, 8 hr of growth
Method: (§1) V. harveyi strain MM32 (luxN::Cm, luxS::Tn5Kan) was used for bioluminescence assays. This strain was constructed by introducing luxS::Tn5Kan onto the chromosome of strain JAF305 (luxN::Cm) (Bassler et al., 1993; Freeman et al., 1999). S. typhimurium strain MET844 (rpsL, putRA::Kan-lsr-lacZYA, ΔlsrFGE::Cm, luxS::TPOP) was used for lsr-lacZ assays (Taga et al., 2003). V. harveyi was grown in borate-depleted autoinducer bioassay (AB) medium (Greenberg et al., 1979), and S. typhimurium was grown in borate-depleted Luria-Bertani (LB) medium. To remove borate, the media were filtered through a borate anion-specific resin, Amberlite IRA743 (Sigma-Aldrich). Specifically, 500 ml of medium was passed three times through 30 ml of resin and the column was regenerated between each passage according to a method described previously (Bennett et al., 1999). Following filtration, the pH of the medium was adjusted using KOH made with borate-depleted water. For all experiments involving borate-depleted reagents, only plastic supplies were used. To test the effect of boron on the bioluminescence and lsr-lacZ assays, boric acid was added to the borate-depleted media to a final concentration of 5 mM.
V. harveyi MM32 was grown 14 hr in borate-depleted AB at 30° C. with aeration and subsequently diluted 1:5,000 into fresh borate-depleted AB medium in the presence or absence of 5 mM boric acid. 10% autoinducer samples (v/v) were added to the diluted cells and light production was measured hourly in a Wallac Model 1450 Microbeta Plus liquid scintillation counter. […] Bioluminescence is reported as the light produced by the cells divided by the background obtained in medium alone.
(§2) Ligands were released from LsrB and LuxP as described above. All ligand concentrations were estimated by ^11B-NMR in NMR buffer supplemented with 5 mM boric acid; the area of the boric acid peak served as an internal concentration standard.
To directly examine the influence of borate on AI-2-dependent signaling in V. harveyi and S. typhimurium, borate-depleted medium was prepared. AI-2 responses (bioluminescence in V. harveyi, lsr operon induction in S. typhimurium) were measured both with and without added boric acid. In this experiment, V. harveyi strain, MM32 was used because this strain lacks the LuxS enzyme needed to biosynthesize DPD and thus produces no endogenous AI-2 signal. This strain also has the AI-1 pathway inactivated. Bioluminescence was measured following addition of enzymatically synthesized DPD or, alternatively, ligand released from either LsrB or LuxP.

[2] = test system: lsr operon in S. typhimurium strain MET844 (LuxS−); test: S. typhimurium AI-2 bioassay (lsr-lacZ, β-galactosidase activity, strain MET844); assay type: cell-based; settings: for lsr expression (β-galactosidase activity): borate-depleted LB medium, 4 hr, approximately 10 μM DPD and LsrB ligand, 4 μM LuxP ligand
Method: as §1
AI-2-dependent induction of the lsr operon in S. typhimurium was measured by determining the β-galactosidase activity of the lsr-lacZ promoter fusion in S. typhimurium strain MET844. Overnight cultures were grown in borate-depleted LB medium at 37° C. with aeration and were diluted 1:100 into fresh borate-depleted LB medium in the presence or absence of 5 mM boric acid. To the diluted cells (900 μl), 10% (v/v) autoinducer samples were added (100 μl), and cells were grown for 4 hr. Cell lysates were prepared and β-galactosidase activity was measured as described previously (Taga et al., 2003). β-galactosidase units are defined as [(OD420 min^−1×dilution factor)/OD600].
as §2

V. harveyi [3] = settings: cited from earlier work
[4] = target: T1, S. typhimurium receptor LsrB (Salmonella typhimurium, UniProt Q8ZKQ1); test: X-ray crystal structure of the LsrB:ligand complex; assay type: binding; settings: holo-LsrB crystal, 1.3 Å resolution
T1 construct: The final model contains all LsrB residues present in the protein (27-340); GST (N, cleaved yes); made in house; host or cells: E. coli BL21
Description: Both apo-LsrB and holo-LsrB crystallized by the hanging drop method in 0.1 M Tris-HCl (pH 8.5), 22%-25% PEG 4000 (w/v) in space group P212121. The apo-LsrB crystals initially obtained (a=38.0, b=74.0, c=116.2) were used to seed crystallization in 0.1 M Tris-HCl, pH 8.5, 18%-24% PEG 4000. Crystals were cryoprotected by brief soaks in 0.1 M Tris-HCl, pH 8.5, 20% PEG 4000, 16% (v/v) glycerol and flash frozen in liquid nitrogen. Native crystals diffracted to 1.9 Å and data were collected at 100 K using an R-AXIS-IV image plate detector mounted on a Rigaku 200HB generator. Selenomethionine LsrB crystals were grown and frozen in the same conditions as native crystals. Selenomethionine crystals diffracted to 2.1 Å resolution at NSLS beam line X25, where MAD data were collected using an ADSC Q315 CCD detector. Holo-LsrB crystals (a=37.8, b=76.6, c=109.7) were prepared by addition of approximately 0.25 mM in vitro LuxS reaction product (Schauder et aL, 2001) to the native LsrB crystallization conditions, giving a DPD:LsrB molar ratio of slightly over 1:1. […]
To identify the LsrB ligand, LsrB was crystallized in the presence of DPD and the other products generated by incubating SAH with recombinant Pfs and LuxS enzymes as previously described (Schauder et al., 2001) (FIG. 1A). The structure was determined by molecular replacement and refined to 1.3 Å resolution (Table 1). […]

V. harveyi receptor LuxP = V. harveyi receptor LuxP (Vibrio harveyi, UniProt P54300); settings: Chen et al., 2002; cited from earlier work
S. typhimurium = test system: S. typhimurium
Method: as §1

V. harveyi [5] = settings: presence or absence of 5 mM boric acid; AB medium
Method: as §1

[6] = borate-depleted AB medium plus 5 mM boric acid
[7] = 5 mM boric acid added to borate-depleted medium

Sequence of V. harveyi receptor LuxP (P54300 24-365): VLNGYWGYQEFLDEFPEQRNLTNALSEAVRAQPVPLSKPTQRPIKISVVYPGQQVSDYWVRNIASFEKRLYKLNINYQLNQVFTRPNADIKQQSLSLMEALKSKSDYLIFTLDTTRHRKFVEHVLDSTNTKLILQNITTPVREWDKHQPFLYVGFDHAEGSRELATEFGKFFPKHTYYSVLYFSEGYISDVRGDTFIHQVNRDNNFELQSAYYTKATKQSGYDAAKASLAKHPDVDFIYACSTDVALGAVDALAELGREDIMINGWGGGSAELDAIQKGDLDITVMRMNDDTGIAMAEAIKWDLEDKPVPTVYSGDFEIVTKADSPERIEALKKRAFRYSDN

CC(=O)C(=O)C(O)CO (centres unmarked) [DPD, 4,5-dihydroxy-2,3-pentanedione]
light production [1, 6]: stimulate light production
light production ([1]; borate-depleted AB medium): No light was produced
DPD final concentration inducing a linear response in light production ([1]; in the presence of 5 mM borate, 6-8 hr incubation): 0.1 to 1 nM
lsr expression (β-galactosidase activity) [2]: induces lsr expression
bioluminescence in V. harveyi (V. harveyi [3]; chemically synthesized DPD, only in the presence of boric acid (Meijler et al., 2004)): induces bioluminescence

C[C@@]1(O)OC[C@H](O)C1(O)O [LsrB ligand]
light production [1, 6]: stimulate light production
light production ([1]; borate-depleted AB medium): No light was produced
lsr expression (β-galactosidase activity) [2]: induces lsr expression

C[C@]12OC[C@H](O)[C@@]1(O)O[B-](O)(O)O2 [LuxP ligand]
light production ([1]; borate-depleted AB medium): failed to stimulate light production
lsr expression (β-galactosidase activity) [2]: induces lsr expression

C[C@@]1(O)OC[C@H](O)C1(O)O [R-THMF, (2R,4S)-2-methyl-2,3,3,4-tetrahydroxytetrahydrofuran]
binding to LsrB [4]: binds

CC12OCC(O)C1(O)O[B-](O)(O)O2 [S-THMF-borate, α-L-glycero-1-dehydro-3-hydro-penta-2,3-diulo-2,5-furanosyl-2,3-cyclic borate]
binding to LuxP (V. harveyi receptor LuxP): binds

OB(O)O [boric acid]
effect of boric acid on the ability of DPD or either receptor's ligand to activate the V. harveyi assay [1, 7]: strongly enhances
effect of boric acid on the ability of DPD or either receptor's ligand to activate the S. typhimurium assay [2, 7]: inhibits
effect on growth (S. typhimurium): no effect
effect on growth (V. harveyi [5]): no effect

N[C@@H](CCS)C(=O)O [homocysteine]
autoinducer activity (V. harveyi [3]; product of the LuxS reaction): no autoinducer activity
